Reference: patent publication US10131652B2, “Pyrimidinyloxy benzene derivatives as herbicides” (E. I. DU PONT DE NEMOURS AND COMPANY, priority 2014, dated 2018)

What was measured:
Format in all cases: in vivo
[1] = system: galium (catchweed bedstraw, Galium aparine); assay: Test B postemergence plant response
In short: (§1)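 Weeds grown in loam soil/sand pots were sprayed postemergence at 2 to 10 cm height, one- to two-leaf stage. After approximately 10 days in greenhouse, injury was rated visually against untreated controls on a 0 (no effect) to 100 (complete control) scale; dash means no test result.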

[2] = system: blackgrass (Alopecurus myosuroides); assay: Test B postemergence plant response
In short: as §1

[3] = system: waterhemp (common waterhemp, Amaranthus rudis); assay: Test D pre-/postemergence plant response
In short: (§2)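 Pre-/post-emergence greenhouse test. Pre: seeded loam+sand, sprayed same day. Post: 1–4 leaf plants (2–18 cm), peat/vermiculite mix. Formulation: non-phytotoxic solvent + surfactant. Scored visually d13–15, 0–100 vs control.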

[4] = system: ragweed (common ragweed, Ambrosia elatior); assay: Test D pre-/postemergence plant response
In short: as §2

soybean (Glycine max) = assay: Test D pre-/postemergence plant response
In short: as §2

[5] = system: Italian ryegrass (Lolium multiflorum); assay: Test D pre-/postemergence plant response
In short: as §2

[6] = system: giant foxtail (Setaria faberii); assay: Test D pre-/postemergence plant response
In short: as §2

[7] = system: oilseed rape (Brassica napus); assay: Test D pre-/postemergence plant response
In short: as §2

[8] = system: morningglory (Ipomoea coccinea); assay: Test D pre-/postemergence plant response
In short: as §2

corn (Zea mays) = assay: Test D pre-/postemergence plant response
In short: as §2

[9] = system: pigweed (Amaranthus retroflexus); assay: Test D pre-/postemergence plant response
In short: as §2

[10] = system: barnyardgrass (Echinochloa crus-galli); assay: Test D pre-/postemergence plant response
In short: as §2

[11] = system: yellow nutsedge (Cyperus esculentus); assay: Test D pre-/postemergence plant response
In short: as §2

[12] = system: chickweed (common chickweed, Stellaria media); assay: Test D postemergence plant response; details: for Plant response rating, Chickweed: scale 0 to 100, 0 no effect, 100 complete control
In short: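 Plants grown in pots of peat moss–vermiculite medium with wetting agent and starter nutrients received postemergence applications of the formulated test chemicals at 2 to 18 cm height (1- to 4-leaf stage). After 13 to 15 days in a greenhouse, injury was scored visually against untreated controls, 0 (no effect) to 100 (complete control).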

[13] = 125 g ai/ha, postemergence, 0 to 100 scale, 0 no effect, 100 complete control
[14] = Postemergence, 31 g ai/ha, 0 to 100 scale (0 no effect, 100 complete control)
[15] = Postemergence, 31 g ai/ha, scale 0 to 100 (0 no effect, 100 complete control)
[16] = Postemergence, 62 g ai/ha, scale 0 to 100, 0 no effect, 100 complete control
[17] = Postemergence, 125 g ai/ha, scale 0 to 100, 0 no effect, 100 complete control
[18] = Preemergence, 16 g ai/ha, scale 0 to 100 (0 no effect, 100 complete control)
[19] = Preemergence, 31 g ai/ha, scale 0 to 100 (0 no effect, 100 complete control)
[20] = Preemergence, 62 g ai/ha, scale 0 to 100 (0 no effect, 100 complete control)

Cc1cc(-c2c(F)cccc2Oc2ncc(Cl)cn2)on1 [Compound 229]
Plant response rating, Galium [1, 13]: 100
Plant response rating, Galium [1, 14]: 80
Plant response rating, Blackgrass [2, 13]: 80
Plant response rating, Blackgrass [2, 14]: 30
Plant response rating (scale 0 to 100), Waterhemp ([3]; Postemergence, 16 g ai/ha): 60
Waterhemp plant response rating [3, 15]: 70
Waterhemp plant response rating [3, 16]: 80
Plant response rating, Waterhemp [3, 17]: 85
Plant response rating (scale 0 to 100), Waterhemp ([3]; Preemergence, 125 g ai/ha): 98
Plant response rating, Waterhemp [3, 18]: 95
Plant response rating, Waterhemp [3, 19]: 100
Plant response rating, Waterhemp [3, 20]: 98
Plant response rating (scale 0 to 100), Ragweed ([4]; Postemergence, 16 g ai/ha): 35
Ragweed plant response rating [4, 15]: 50
Ragweed plant response rating [4, 16]: 70
Plant response rating, Ragweed [4, 17]: 60
Plant response rating (scale 0 to 100), Ragweed ([4]; Preemergence, 125 g ai/ha): 95
Plant response rating, Ragweed [4, 18]: 35
Plant response rating, Ragweed [4, 19]: 50
Plant response rating, Ragweed [4, 20]: 55
Plant response rating (scale 0 to 100), Soybean (soybean (Glycine max); Postemergence, 16 g ai/ha): 20
Soybean plant response rating (soybean (Glycine max); [15]): 40
Soybean plant response rating (soybean (Glycine max); [16]): 45
Plant response rating, Soybean (soybean (Glycine max); [17]): 70
Plant response rating (scale 0 to 100), Soybean (soybean (Glycine max); Preemergence, 125 g ai/ha): 95
Plant response rating, Soybean (soybean (Glycine max); [18]): 5
Plant response rating, Soybean (soybean (Glycine max); [19]): 35
Plant response rating, Soybean (soybean (Glycine max); [20]): 60
Plant response rating (scale 0 to 100), Ryegrass, Italian ([5]; Postemergence, 16 g ai/ha): 0
Ryegrass, Italian plant response rating [5, 15]: 0
Ryegrass, Italian plant response rating [5, 16]: 0
Plant response rating, Ryegrass, Italian [5, 17]: 5
Plant response rating (scale 0 to 100), Ryegrass, Italian ([5]; Preemergence, 125 g ai/ha): 60
Plant response rating, Ryegrass, Italian [5, 18]: 0
Plant response rating, Ryegrass, Italian [5, 19]: 20
Plant response rating, Ryegrass, Italian [5, 20]: 20
Plant response rating (scale 0 to 100), Foxtail, Giant ([6]; Postemergence, 16 g ai/ha): 0
Foxtail, Giant plant response rating [6, 15]: 5
Plant response rating, Foxtail, Giant [6, 16]: 5
Plant response rating, Foxtail, Giant [6, 17]: 15
Plant response rating (scale 0 to 100), Foxtail, Giant ([6]; Preemergence, 125 g ai/ha): 98
Plant response rating, Foxtail, Giant [6, 18]: 5
Plant response rating, Foxtail, Giant [6, 19]: 70
Plant response rating, Foxtail, Giant [6, 20]: 90
Plant response rating (scale 0 to 100), Oilseed Rape ([7]; Postemergence, 16 g ai/ha): 45
Oilseed Rape plant response rating [7, 15]: 70
Oilseed Rape plant response rating [7, 16]: 60
Plant response rating, Oilseed Rape [7, 17]: 80
Plant response rating (scale 0 to 100), Oilseed Rape ([7]; Preemergence, 125 g ai/ha): 100
Plant response rating, Oilseed Rape [7, 18]: 90
Plant response rating, Oilseed Rape [7, 19]: 100
Plant response rating, Oilseed Rape [7, 20]: 100
Plant response rating (scale 0 to 100), Morningglory ([8]; Postemergence, 16 g ai/ha): 40
Morningglory plant response rating [8, 15]: 25
Morningglory plant response rating [8, 16]: 25
Plant response rating, Morningglory [8, 17]: 35
Plant response rating (scale 0 to 100), Morningglory ([8]; Preemergence, 125 g ai/ha): 45
Plant response rating, Morningglory [8, 18]: 0
Plant response rating, Morningglory [8, 19]: 0
Plant response rating, Morningglory [8, 20]: 35
Plant response rating (scale 0 to 100), Corn (corn (Zea mays); Postemergence, 16 g ai/ha): 5
Corn plant response rating (corn (Zea mays); [15]): 20
Plant response rating, Corn (corn (Zea mays); [16]): 5
Plant response rating, Corn (corn (Zea mays); [17]): 5
Plant response rating (scale 0 to 100), Corn (corn (Zea mays); Preemergence, 125 g ai/ha): 40
Plant response rating, Corn (corn (Zea mays); [18]): 0
Plant response rating, Corn (corn (Zea mays); [19]): 5
Plant response rating, Corn (corn (Zea mays); [20]): 5
Plant response rating (scale 0 to 100), Pigweed ([9]; Postemergence, 16 g ai/ha): 55
Pigweed plant response rating [9, 15]: 60
Pigweed plant response rating [9, 16]: 70
Plant response rating, Pigweed [9, 17]: 80
Plant response rating (scale 0 to 100), Pigweed ([9]; Preemergence, 125 g ai/ha): 100
Plant response rating, Pigweed [9, 18]: 100
Plant response rating, Pigweed [9, 19]: 100
Plant response rating, Pigweed [9, 20]: 100
Plant response rating (scale 0 to 100), Barnyardgrass ([10]; Postemergence, 16 g ai/ha): 5
Barnyardgrass plant response rating [10, 15]: 5
Plant response rating, Barnyardgrass [10, 16]: 5
Plant response rating, Barnyardgrass [10, 17]: 10
Plant response rating (scale 0 to 100), Barnyardgrass ([10]; Preemergence, 125 g ai/ha): 100
Plant response rating, Barnyardgrass [10, 18]: 15
Plant response rating, Barnyardgrass [10, 19]: 55
Plant response rating, Barnyardgrass [10, 20]: 65
Plant response rating (scale 0 to 100), Nutsedge, Yellow ([11]; Postemergence, 16 g ai/ha): 0
Nutsedge, Yellow plant response rating [11, 15]: 0
Nutsedge, Yellow plant response rating [11, 16]: 10
Plant response rating, Nutsedge, Yellow [11, 17]: 10
Plant response rating (scale 0 to 100), Nutsedge, Yellow ([11]; Preemergence, 125 g ai/ha): 45
Plant response rating, Nutsedge, Yellow [11, 18]: 0
Plant response rating, Nutsedge, Yellow [11, 19]: 0
Plant response rating, Nutsedge, Yellow [11, 20]: 10
Plant response rating (scale 0 to 100), Chickweed ([12]; 16 g ai/ha): 60
Chickweed plant response rating ([12]; 31 g ai/ha, scale 0 to 100 (0 no effect, 100 complete control)): 60
Plant response rating, Chickweed ([12]; 62 g ai/ha): 80
Plant response rating, Chickweed ([12]; 125 g ai/ha): 85
